Usually Kd stands for the concentration at which binding is half-saturated. A high value points to weaker binding.

Structures are written as SMILES.

This experiment has as its target T1, M1 protein (Streptococcus pyogenes, UniProt Q99XV0).
T1 construct: gene emm1; captured on NTA chip
Briefly: SPR, single-cycle, steady-state affinity. As to conditions: protein captured on NTA chip via His tag, PBS, 25 °C. The format is binding.

T1 sequence (Q99XV0 entry or part of it): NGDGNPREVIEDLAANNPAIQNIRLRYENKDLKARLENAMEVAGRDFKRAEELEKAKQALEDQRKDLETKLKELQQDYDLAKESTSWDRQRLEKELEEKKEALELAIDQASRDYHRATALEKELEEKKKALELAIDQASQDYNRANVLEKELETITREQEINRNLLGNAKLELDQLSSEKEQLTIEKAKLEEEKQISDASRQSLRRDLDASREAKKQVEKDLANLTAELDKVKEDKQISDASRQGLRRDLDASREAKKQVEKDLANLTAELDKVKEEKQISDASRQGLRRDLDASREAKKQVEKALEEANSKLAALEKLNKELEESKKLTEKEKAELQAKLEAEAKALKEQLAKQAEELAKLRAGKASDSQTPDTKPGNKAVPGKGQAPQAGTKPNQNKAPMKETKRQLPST

For `C[C@@H]1O[C@@H](O[C@H]2C(O)O[C@H](CO)[C@H](O)[C@@H]2O[C@H]2O[C@H](CO)[C@H](O)[C@H](O)[C@H]2O)[C@@H](O)[C@H](O)[C@@H]1O` (some centres unmarked) [blood group B trisaccharide, Galα1-3(Fucα1-2)Gal], binding was put at a Kd of 0.518 ± 0.0513 µM.
The figure for `CC(=O)N[C@H]1[C@@H](O[C@H]2[C@@H](O)[C@@H](CO)OC(O)[C@@H]2O[C@@H]2O[C@@H](C)[C@@H](O)[C@@H](O)[C@@H]2O)O[C@H](CO)[C@H](O)[C@@H]1O` (some centres unmarked) [7K, GalNAcα1-3(Fucα1-2)Gal] is 2.5 ± 0.4 µM.

Source of the values: article PMC5263248, “Blood Group Antigen Recognition via the Group A Streptococcal M Protein Mediates Host Colonization” (mBio, 2017).
